Measured values taken from ChEMBL document CHEMBL1201862, “PubChem BioAssay data set” (2004).
Values joined by “and” are separate entries in the source; they are usually repeats but may differ in a detail not shown here. Identical values can stand only once. Active and inactive are the calls of the source.

Columns and labels:
Hexokinase HKDC1 [1] = biological target: T1, Hexokinase HKDC1 (Homo sapiens, UniProt Q2TB90); test: HKDC1 hexokinase inhibitors, SAR follow-up, biochemical, set 2 (AID 588355); type: functional
T1 sequence (Q2TB90 whole entry): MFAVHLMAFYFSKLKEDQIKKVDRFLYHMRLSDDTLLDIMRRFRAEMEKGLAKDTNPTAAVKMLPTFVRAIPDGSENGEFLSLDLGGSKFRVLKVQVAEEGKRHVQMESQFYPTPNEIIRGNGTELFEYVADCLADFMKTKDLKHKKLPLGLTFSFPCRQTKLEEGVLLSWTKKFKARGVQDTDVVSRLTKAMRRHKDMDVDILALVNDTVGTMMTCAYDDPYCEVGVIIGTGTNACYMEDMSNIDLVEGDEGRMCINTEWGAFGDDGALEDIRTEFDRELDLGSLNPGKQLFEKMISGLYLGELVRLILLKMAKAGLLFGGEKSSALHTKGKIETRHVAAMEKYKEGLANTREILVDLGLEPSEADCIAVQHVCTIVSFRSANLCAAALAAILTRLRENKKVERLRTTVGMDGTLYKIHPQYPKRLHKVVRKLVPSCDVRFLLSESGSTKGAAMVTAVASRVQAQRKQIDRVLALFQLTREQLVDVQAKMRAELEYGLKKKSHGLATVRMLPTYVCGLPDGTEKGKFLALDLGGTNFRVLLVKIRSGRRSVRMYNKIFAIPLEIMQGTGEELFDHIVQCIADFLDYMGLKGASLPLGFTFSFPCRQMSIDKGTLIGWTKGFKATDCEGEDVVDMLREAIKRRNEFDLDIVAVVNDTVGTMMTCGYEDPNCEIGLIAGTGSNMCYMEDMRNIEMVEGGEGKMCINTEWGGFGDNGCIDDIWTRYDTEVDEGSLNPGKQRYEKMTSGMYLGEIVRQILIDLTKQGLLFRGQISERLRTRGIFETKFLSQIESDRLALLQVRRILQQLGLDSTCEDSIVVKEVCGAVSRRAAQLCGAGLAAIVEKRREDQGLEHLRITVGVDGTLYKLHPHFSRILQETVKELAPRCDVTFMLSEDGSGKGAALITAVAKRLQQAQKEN

Hexokinase HKDC1 [2] = biological target: T1, Hexokinase HKDC1; test: SAR analysis of small molecule inhibitors of hexokinase domain containing I (HKDC1) - Set 3. [Related pubchem assays (depositor defined):AID493160, AID493190]; type: functional
Hexokinase HKDC1 [3] = biological target: T1, Hexokinase HKDC1; test: HKDC1 hexokinase inhibitors, dose response, biochemical, W721R variant (AID 504729); type: functional
[4] = biological target: RNA-editing ligase 1, mitochondrial (Trypanosoma brucei brucei, UniProt P86926); test: TbREL1 ligase inhibitors, dose response, biochemical, fluorescence, Trypanosoma brucei (AID 1117295); type: functional
Sequence of RNA-editing ligase 1, mitochondrial (P86926 whole entry): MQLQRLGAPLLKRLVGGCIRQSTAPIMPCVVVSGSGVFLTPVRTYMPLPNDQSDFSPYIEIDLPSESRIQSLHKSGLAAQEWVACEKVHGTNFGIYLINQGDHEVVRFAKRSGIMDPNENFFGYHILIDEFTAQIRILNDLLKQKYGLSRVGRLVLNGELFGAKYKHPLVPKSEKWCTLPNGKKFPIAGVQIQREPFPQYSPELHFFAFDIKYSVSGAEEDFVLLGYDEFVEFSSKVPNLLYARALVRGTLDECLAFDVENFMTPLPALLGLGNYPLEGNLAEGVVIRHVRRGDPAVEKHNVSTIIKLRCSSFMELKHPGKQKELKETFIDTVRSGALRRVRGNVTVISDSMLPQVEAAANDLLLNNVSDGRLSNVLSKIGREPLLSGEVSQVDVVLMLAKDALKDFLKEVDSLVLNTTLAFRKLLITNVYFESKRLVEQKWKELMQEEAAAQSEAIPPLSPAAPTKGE

Cytochrome P450 2C9 = Cytochrome P450 2C9 (Homo sapiens, UniProt P11712)
Sequence of Cytochrome P450 2C9 (P11712 whole entry, the tested form may be a part): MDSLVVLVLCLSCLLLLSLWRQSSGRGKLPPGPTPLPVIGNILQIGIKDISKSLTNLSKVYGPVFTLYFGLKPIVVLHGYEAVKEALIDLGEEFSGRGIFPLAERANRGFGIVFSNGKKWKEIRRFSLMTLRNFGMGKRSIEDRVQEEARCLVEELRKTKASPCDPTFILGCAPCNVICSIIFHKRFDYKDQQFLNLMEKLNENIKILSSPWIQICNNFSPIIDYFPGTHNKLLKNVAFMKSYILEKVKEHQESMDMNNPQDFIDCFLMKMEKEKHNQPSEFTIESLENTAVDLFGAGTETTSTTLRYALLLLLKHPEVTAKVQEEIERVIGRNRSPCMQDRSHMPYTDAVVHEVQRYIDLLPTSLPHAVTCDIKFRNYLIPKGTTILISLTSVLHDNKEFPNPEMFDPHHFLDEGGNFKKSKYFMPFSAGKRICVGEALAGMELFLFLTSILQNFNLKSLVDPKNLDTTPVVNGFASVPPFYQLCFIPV

Hexokinase HKDC1 [5] = biological target: T1, Hexokinase HKDC1; test: SAR analysis of small molecule inhibitors of hexokinase domain containing I (HKDC1). [Related pubchem assays (depositor defined):AID493160, AID493190]; type: functional
Hexokinase-1 [6] = biological target: T2, Hexokinase-1 (Homo sapiens, UniProt P19367); test: HK1 enzyme inhibition by HKDC1 hits, SAR follow-up, selectivity assay for HKDC1 inhibitor project, biochemical, set 2, resazurin fluorescence coupled readout (AID 588356); type: functional
T2 sequence (P19367 whole entry): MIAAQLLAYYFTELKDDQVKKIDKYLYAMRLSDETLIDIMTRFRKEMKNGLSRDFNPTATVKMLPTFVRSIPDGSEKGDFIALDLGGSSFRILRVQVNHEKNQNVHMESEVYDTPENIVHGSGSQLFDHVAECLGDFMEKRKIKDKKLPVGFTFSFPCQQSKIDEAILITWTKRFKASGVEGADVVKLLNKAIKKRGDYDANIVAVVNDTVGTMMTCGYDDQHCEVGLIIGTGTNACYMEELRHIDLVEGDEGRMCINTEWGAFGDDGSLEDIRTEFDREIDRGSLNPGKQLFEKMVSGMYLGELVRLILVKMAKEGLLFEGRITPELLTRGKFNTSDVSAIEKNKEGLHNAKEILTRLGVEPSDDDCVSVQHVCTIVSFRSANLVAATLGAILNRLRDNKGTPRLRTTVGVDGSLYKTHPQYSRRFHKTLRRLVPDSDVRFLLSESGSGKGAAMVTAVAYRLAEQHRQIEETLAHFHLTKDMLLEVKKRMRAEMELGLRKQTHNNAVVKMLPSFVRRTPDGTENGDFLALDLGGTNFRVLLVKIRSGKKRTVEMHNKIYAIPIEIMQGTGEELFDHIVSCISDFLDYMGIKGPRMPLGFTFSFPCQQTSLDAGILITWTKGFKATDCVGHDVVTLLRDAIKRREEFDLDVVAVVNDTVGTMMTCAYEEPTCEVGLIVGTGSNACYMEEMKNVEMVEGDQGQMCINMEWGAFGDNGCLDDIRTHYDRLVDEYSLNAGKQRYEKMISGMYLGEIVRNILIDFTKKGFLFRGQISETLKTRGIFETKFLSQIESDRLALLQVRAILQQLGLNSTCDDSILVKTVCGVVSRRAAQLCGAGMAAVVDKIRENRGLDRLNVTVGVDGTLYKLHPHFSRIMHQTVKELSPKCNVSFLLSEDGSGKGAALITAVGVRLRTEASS

Cytochrome P450 1A2 = biological target: T3, Cytochrome P450 1A2 (Homo sapiens, UniProt P05177);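 note: PubChem cytochrome P450 panel assay, CYP1A2 panel member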
T3 sequence (P05177 whole entry): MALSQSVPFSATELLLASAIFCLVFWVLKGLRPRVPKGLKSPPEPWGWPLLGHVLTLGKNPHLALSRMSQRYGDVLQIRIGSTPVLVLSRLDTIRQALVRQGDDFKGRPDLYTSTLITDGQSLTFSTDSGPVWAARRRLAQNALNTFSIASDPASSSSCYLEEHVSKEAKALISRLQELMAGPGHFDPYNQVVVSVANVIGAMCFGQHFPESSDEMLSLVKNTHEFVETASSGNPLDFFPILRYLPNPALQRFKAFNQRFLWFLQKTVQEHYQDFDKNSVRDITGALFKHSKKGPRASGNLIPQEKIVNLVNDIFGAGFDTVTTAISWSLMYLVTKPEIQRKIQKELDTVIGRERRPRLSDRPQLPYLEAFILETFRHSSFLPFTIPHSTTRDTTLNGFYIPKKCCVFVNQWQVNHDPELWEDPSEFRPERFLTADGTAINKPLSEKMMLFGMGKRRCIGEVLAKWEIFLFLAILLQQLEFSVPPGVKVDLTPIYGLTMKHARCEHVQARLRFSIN

[7] = biological target: Eukaryotic translation initiation factor 4E (Mus musculus, UniProt P63073); test: eIF4E–eIF4G protein interaction inhibitors, dose response, biochemical, TR-FRET (AID 855); type: functional;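 note: potency for disrupting eIF4E binding to eIF4GI seen as loss of FRET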
Hexokinase-1 [8] = biological target: T2, Hexokinase-1; test: SAR analysis of small molecule inhibitors of hexokinase domain containing I (HKDC1) in the hexokinase 1 selectivity assay. [Related pubchem assays (depositor defined):AID493160, AID493190]; type: functional
[9] = biological target: Platelet-activating factor acetylhydrolase (Mus musculus, UniProt Q60963); test: Late stage assay provider results from the probe development effort to identify inhibitors of plasma platelet activating factor acetylhydrolase (pPAFAH): fluorescence-based dose response biochemical gel-based competitive Activity-Based Protein Profiling (ABPP) assay for HTS compounds. [Related pubchem assays (depositor defined):AID463082, AID463092, AID463230, AID588474]; type: cell-free
[10] = (§1) Counterscreen for antagonists of the orexin 1 receptor (OX1R; HCRTR1): Fluorescence-based cell-based high throughput dose response assay to identify antagonists of the parental CHO cell line. [Related pubchem assays (depositor defined):AID434989, AID435008, AID463079, AID485270, AID492963, AID492964, AID492965, AID493232, AID504699, AID504701]; type: functional
Orexin receptor type 2 [11] = biological target: T4, Orexin receptor type 2 (Homo sapiens, UniProt O43614); test: Counterscreen assay for antagonists of the orexin 1 receptor (OX1R; HCRTR1): Fluorescence-based cell-based dose response assay for antagonists of the orexin 2 receptor (OX2R; HCRTR2), run by assay provider.; type: functional
T4 sequence (O43614 whole entry): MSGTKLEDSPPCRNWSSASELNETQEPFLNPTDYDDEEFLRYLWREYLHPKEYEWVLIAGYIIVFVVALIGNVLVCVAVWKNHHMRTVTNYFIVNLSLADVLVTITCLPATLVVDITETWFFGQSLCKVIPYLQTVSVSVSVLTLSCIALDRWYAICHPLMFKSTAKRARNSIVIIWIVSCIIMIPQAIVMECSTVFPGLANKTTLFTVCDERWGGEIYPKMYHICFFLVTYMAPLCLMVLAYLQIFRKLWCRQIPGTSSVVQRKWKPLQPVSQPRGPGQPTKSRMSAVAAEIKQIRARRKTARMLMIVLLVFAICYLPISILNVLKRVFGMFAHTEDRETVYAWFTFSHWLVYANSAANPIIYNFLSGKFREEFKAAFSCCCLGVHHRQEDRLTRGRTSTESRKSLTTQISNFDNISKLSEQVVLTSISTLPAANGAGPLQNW

[12] = biological target: T5, Orexin/Hypocretin receptor type 1 (Homo sapiens, UniProt O43613); test: (§2) Fluorescence-based cell-based high throughput dose response assay for antagonists of the orexin 1 receptor (OX1R; HCRTR1). [Related pubchem assays (depositor defined):AID434989, AID435008, AID463079, AID485270, AID492963, AID492964, AID492965, AID493232, AID504717, AID504718]; type: functional
T5 sequence (O43613 whole entry): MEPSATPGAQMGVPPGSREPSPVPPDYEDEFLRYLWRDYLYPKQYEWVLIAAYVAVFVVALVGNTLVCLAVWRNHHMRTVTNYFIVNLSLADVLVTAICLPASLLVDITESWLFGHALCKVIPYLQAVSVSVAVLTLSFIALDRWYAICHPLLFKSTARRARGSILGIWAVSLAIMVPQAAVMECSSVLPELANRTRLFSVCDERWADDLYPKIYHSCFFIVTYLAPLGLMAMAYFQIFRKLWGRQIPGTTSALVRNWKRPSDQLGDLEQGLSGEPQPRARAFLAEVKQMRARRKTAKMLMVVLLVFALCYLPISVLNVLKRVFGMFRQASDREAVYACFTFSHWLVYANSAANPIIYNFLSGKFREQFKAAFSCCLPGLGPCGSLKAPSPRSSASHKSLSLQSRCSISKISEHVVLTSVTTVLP

Orexin receptor type 2 [13] = biological target: T4, Orexin receptor type 2; test: Counterscreen assay for antagonists of the orexin 1 receptor (OX1R; HCRTR1): Homogeneous Time Resolved Fluorescence (HTRF)-based cell-based dose response assay for antagonists of the orexin 2 receptor (OX2R; HCRTR2), run by assay provider.; type: functional
[14] = biological target: T5, Orexin/Hypocretin receptor type 1; test: as §2, with “Homogeneous Time Resolved Fluorescence (HTRF)-based” for “Fluorescence-based”; type: functional
CHO-K1 = test: as §1, with “Homogeneous time resolved fluorescence (HTRF)-based” for “Fluorescence-based”, “cell-based” for “cell-based high throughput”, “CHO-K1” for “CHO”; type: functional; details: Cricetulus griseus
[15] = CAL PDZ domain peptide-binding inhibitors, dose response, biochemical, fluorescence polarization, untagged CAL PDZ, dry powder (AID 602255); type: functional
[16] = biological target: Cystic fibrosis transmembrane conductance regulator/Golgi-associated PDZ and coiled-coil motif-containing protein (Homo sapiens, UniProt P13569+Q9HD26); test: CAL PDZ domain peptide-binding inhibitors, dose response, biochemical, fluorescence polarization, Cer-tagged CAL PDZ, dry powder (AID 602253); type: functional
Sequence of Cystic fibrosis transmembrane conductance regulator/Golgi-associated PDZ and coiled-coil motif-containing protein (P13569 whole entry, other chains not shown, the tested form may be a part): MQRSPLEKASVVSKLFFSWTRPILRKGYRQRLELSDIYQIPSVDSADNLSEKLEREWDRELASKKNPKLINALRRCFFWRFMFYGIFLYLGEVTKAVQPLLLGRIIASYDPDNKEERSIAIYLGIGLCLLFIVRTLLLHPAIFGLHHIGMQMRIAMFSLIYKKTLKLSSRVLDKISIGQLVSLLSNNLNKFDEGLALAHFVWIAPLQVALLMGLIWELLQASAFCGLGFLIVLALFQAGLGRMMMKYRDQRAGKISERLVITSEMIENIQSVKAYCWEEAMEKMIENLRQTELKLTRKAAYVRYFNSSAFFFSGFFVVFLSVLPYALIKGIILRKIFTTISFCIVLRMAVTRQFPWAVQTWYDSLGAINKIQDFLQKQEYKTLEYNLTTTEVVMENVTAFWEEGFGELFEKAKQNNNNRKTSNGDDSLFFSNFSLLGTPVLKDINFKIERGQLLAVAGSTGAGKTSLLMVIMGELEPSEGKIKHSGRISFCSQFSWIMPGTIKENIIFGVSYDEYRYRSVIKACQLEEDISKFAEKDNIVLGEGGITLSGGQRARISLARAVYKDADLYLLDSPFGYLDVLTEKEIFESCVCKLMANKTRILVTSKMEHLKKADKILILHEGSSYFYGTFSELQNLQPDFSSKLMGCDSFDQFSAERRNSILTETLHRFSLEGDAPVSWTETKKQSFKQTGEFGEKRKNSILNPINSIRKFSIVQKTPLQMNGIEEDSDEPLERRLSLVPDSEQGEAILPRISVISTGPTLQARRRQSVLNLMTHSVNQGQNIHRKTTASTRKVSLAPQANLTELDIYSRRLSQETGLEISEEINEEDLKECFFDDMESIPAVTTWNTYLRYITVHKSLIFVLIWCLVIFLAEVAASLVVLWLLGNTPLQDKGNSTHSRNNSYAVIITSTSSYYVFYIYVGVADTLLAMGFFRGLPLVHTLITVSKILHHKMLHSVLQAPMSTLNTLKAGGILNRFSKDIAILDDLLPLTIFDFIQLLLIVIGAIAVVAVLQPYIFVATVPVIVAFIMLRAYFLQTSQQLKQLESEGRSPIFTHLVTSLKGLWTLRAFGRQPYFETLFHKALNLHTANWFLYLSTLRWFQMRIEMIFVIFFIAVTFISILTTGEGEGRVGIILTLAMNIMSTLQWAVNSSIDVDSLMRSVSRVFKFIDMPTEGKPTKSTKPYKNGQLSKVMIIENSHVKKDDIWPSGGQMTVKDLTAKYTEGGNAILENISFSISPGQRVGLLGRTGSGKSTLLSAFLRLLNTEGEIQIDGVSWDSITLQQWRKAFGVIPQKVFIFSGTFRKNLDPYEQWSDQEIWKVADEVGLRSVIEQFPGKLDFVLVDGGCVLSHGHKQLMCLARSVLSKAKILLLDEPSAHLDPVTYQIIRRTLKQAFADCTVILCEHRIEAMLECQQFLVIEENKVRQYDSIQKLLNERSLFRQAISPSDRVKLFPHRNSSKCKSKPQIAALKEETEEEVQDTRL

[17] = biological target: Eukaryotic elongation factor 2 kinase (Homo sapiens, UniProt O00418); type: functional
Sequence of Eukaryotic elongation factor 2 kinase (O00418 whole entry, canonical isoform): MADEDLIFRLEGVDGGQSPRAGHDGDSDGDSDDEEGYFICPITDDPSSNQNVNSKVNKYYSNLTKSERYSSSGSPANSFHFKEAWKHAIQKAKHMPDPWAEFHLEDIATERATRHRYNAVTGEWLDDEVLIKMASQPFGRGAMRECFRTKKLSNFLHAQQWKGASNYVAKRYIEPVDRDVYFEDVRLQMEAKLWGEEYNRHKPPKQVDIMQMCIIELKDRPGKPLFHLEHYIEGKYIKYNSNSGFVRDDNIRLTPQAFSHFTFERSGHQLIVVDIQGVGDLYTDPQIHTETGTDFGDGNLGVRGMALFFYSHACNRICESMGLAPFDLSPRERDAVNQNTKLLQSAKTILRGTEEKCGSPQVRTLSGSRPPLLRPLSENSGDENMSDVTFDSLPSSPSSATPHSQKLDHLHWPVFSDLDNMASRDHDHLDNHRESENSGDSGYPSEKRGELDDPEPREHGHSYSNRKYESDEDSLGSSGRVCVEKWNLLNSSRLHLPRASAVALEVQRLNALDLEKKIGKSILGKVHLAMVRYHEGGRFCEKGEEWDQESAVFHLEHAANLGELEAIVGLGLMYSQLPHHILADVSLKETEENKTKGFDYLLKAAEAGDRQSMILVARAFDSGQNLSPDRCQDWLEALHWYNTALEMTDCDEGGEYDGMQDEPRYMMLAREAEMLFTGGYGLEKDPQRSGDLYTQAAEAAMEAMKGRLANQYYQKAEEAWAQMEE

[18] = biological target: Casein kinase I isoform delta (Homo sapiens, UniProt P48730); type: functional;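 note: measured as one member (CSNK1D) of a kinome panel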
[19] = biological target: DNA dC->dU-editing enzyme APOBEC-3A (Homo sapiens, UniProt P31941); test: SAR analysis of small molecule inhibitors of APOBEC3A DNA Deaminase via a fluorescence-based single-stranded DNA deaminase assay.; type: functional; details: read-out: IC50_Mean
Sequence of DNA dC->dU-editing enzyme APOBEC-3A (P31941 whole entry): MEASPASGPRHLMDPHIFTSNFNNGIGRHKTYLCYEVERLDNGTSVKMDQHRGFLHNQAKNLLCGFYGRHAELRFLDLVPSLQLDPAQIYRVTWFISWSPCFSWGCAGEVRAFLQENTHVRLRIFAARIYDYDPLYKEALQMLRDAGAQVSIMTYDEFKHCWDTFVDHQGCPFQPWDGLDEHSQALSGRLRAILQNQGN

[20] = biological target: DNA dC->dU-editing enzyme APOBEC-3G (Homo sapiens, UniProt Q9HC16); test: APOBEC3G deaminase inhibitors, SAR follow-up, biochemical, fluorescence, single-stranded DNA substrate (AID 602136); type: functional; details: read-out: IC50_Mean
[21] = biological target: Serine/threonine-protein kinase pim-1 (Homo sapiens, UniProt P11309); type: functional
[22] = biological target: Mitogen-activated protein kinase kinase kinase kinase 4 (Homo sapiens, UniProt O95819); type: functional
Sequence of Mitogen-activated protein kinase kinase kinase kinase 4 (O95819 whole entry): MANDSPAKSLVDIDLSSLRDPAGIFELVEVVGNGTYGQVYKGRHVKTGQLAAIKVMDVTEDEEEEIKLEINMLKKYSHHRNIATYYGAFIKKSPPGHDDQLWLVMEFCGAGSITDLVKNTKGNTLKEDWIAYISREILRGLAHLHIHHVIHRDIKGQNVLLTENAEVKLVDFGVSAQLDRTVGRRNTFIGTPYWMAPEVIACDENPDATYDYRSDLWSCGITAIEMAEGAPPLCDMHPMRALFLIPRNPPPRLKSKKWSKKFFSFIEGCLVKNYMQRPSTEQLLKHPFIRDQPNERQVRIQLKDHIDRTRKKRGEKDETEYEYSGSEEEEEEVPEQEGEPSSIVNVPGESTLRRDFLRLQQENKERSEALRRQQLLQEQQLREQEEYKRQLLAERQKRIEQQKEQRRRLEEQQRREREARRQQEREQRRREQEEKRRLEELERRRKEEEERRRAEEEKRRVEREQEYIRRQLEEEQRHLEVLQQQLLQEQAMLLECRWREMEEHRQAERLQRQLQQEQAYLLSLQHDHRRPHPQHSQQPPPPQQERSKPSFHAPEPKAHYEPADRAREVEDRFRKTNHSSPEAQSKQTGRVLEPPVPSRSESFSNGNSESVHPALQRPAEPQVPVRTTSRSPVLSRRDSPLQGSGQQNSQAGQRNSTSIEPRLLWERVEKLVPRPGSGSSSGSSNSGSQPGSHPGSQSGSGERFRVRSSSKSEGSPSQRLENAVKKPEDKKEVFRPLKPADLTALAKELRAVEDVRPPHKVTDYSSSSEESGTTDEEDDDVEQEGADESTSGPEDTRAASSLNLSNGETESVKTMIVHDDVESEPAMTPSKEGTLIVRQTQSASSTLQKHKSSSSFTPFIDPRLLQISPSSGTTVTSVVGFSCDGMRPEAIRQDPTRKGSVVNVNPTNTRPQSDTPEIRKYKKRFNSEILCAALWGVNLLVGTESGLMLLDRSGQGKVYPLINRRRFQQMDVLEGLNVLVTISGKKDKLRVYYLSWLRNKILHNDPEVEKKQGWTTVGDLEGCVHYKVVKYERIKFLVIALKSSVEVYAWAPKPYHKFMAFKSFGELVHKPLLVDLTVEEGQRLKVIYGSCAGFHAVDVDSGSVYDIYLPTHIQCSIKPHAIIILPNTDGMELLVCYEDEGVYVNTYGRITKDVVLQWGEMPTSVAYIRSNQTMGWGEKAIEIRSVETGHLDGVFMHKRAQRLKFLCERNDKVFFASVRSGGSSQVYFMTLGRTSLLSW

## COc1cc2c(cc1OC)-c1cc(NCc3ccccn3)nc(=O)n1CC2
Hexokinase HKDC1 [1]
  IC50: > 80 µM (inactive) and 11.7 µM (active)
Hexokinase HKDC1 [2]
  IC50: > 80 µM (inactive) and 12.1 µM (active)
Hexokinase HKDC1 [3]
  IC50: 8.47 µM (active)
[4]
  IC50: 14.7 µM (inactive)
Cytochrome P450 2C9
  AC50: 7.94 µM (inconclusive)
Hexokinase HKDC1 [5]
  IC50: 12.4 µM (active)
Hexokinase-1 [6]
  IC50: > 80 µM (inactive)
Cytochrome P450 1A2
  AC50: 35.5 µM (inconclusive)
[7]
  IC50: 9.21 µM (active)
Hexokinase-1 [8]
  IC50: > 80 µM (inactive)

## O=C(Oc1ccc(-c2ccccc2)cc1)N1CCOCC1
[9]
  IC50: 0.469 µM (active)

## Cc1cccc(OCCSc2nc3ccccc3n2CCC(=O)O)c1
[10]
  IC50: > 49.8 µM (inactive)
Orexin receptor type 2 [11]
  IC50: 88.2 µM (inactive)
[12]
  IC50: 19.6 µM (inactive)
Orexin receptor type 2 [13]
  IC50: > 50 µM (inactive)
[14]
  IC50: 1.57 µM (active)
CHO-K1
  IC50: > 66.2 µM (inactive)

## CCc1ccc(S(=O)(=O)/N=C2\C=C(SC3=NCN=N3)C(=O)c3ccccc32)cc1
[15]
  AC50: 44.5 µM (active)
[16]
  AC50: 41.5 µM (active)

## CNC1CC2OC(C)(C1OC)n1c3ccccc3c3c4c(c5c6ccccc6n2c5c31)C(=O)NC4 (stereo not given)
[17]
  Ki: > 1 µM (inactive)
[18]
  Ki: > 2.51 µM (inactive)

## Cc1nnc(NC(=O)C2(c3ccc(F)cc3)CCC2)s1
[19]
  IC50: > 99 µM (inactive)
[20]
  IC50: > 99 µM (inactive)

## Clc1ccc(OCC2CN(Cc3c[nH]c4ncccc34)CCO2)cc1 (stereo not given)
[21]
  Ki: 2 µM (active)
[22]
  Ki: 1.26 µM (active)
